Measured values: ChEMBL document CHEMBL1649445, “Genital tract, cord blood, and amniotic fluid exposures of seven antiretroviral drugs during and after pregnancy in human immunodeficiency virus type 1-infected women” (Antimicrob Agents Chemother, 2009)
One block for each compound: values may come before it.

How the values were obtained:
Assay type in all cases: ADME, organism-based
[1] = Ratio of drug level in HIV-infected pregnant woman amniotic fluid to maternal blood plasma at 1250 mg, po BID by HPLC/UV analysis; conditions: female, human
[2] = Drug level in HIV-infected pregnant woman amniotic fluid at 1250 mg, po BID by HPLC/UV analysis; conditions: human, in vivo
[3] = Drug level in HIV-infected pregnant woman maternal blood plasma at 1250 mg, po BID by HPLC/UV analysis; conditions: human, in vivo
[4] = Ratio of drug level in HIV-infected pregnant woman cord blood plasma to maternal blood plasma at 1250 mg, po BID by HPLC/UV analysis; conditions: female, human
[5] = Drug level in HIV-infected pregnant woman cord blood plasma at 1250 mg, po BID by HPLC/UV analysis; conditions: human, in vivo
[6] = Drug level in HIV-infected pregnant woman amniotic fluid at 150 mg, po BID by LC/MS/MS analysis; conditions: human, in vivo
[7] = Drug level in HIV-infected pregnant woman maternal blood plasma at 150 mg, po BID by LC/MS/MS analysis; conditions: human, in vivo
[8] = Drug level in HIV-infected pregnant woman cord blood plasma at 150 mg, po BID by LC/MS/MS analysis; conditions: human, in vivo
[9] = Drug level in HIV-infected pregnant woman cord blood plasma at 400 mg, po BID by HPLC/UV analysis; conditions: human, in vivo
[10] = Drug level in HIV-infected pregnant woman amniotic fluid at 400 mg, po BID by HPLC/UV analysis; conditions: human, in vivo
[11] = Drug level in HIV-infected pregnant woman maternal blood plasma at 400 mg, po BID by HPLC/UV analysis; conditions: human, in vivo
[12] = Ratio of drug level in HIV-infected pregnant woman cord blood plasma to maternal blood plasma at 200 mg, po BID by HPLC/UV analysis; conditions: female, human
[13] = Ratio of drug level in HIV-infected pregnant woman amniotic fluid to maternal blood plasma at 200 mg, po BID by HPLC/UV analysis; conditions: female, human
[14] = Drug level in HIV-infected pregnant woman amniotic fluid at 200 mg, po BID by HPLC/UV analysis; conditions: human, in vivo
[15] = Drug level in HIV-infected pregnant woman cord blood plasma at 200 mg, po BID by HPLC/UV analysis; conditions: human, in vivo
[16] = Drug level in HIV-infected pregnant woman maternal blood plasma at 200 mg, po BID by HPLC/UV analysis; conditions: human, in vivo
[17] = Drug level in HIV-infected pregnant woman amniotic fluid at 100 mg, po BID by HPLC/UV analysis; conditions: human, in vivo
[18] = Ratio of drug level in HIV-infected pregnant woman cord blood plasma to maternal blood plasma at 100 mg, po BID by HPLC/UV analysis; conditions: female, human
[19] = Ratio of drug level in HIV-infected pregnant woman amniotic fluid to maternal blood plasma at 100 mg, po BID by HPLC/UV analysis; conditions: female, human
[20] = Drug level in HIV-infected pregnant woman maternal blood plasma at 100 mg, po BID by HPLC/UV analysis; conditions: human, in vivo
[21] = Drug level in HIV-infected pregnant woman cord blood plasma at 100 mg, po BID by HPLC/UV analysis; conditions: human, in vivo
[22] = Drug level in HIV-infected pregnant woman cord blood plasma at 300 mg, po QD by LC/MS/MS analysis; conditions: human, in vivo
[23] = Ratio of drug level in HIV-infected pregnant woman cord blood plasma to maternal blood plasma at 300 mg, po QD by LC/MS/MS analysis; conditions: female, human
[24] = Ratio of drug level in HIV-infected pregnant woman amniotic fluid to maternal blood plasma at 300 mg, po QD by LC/MS/MS analysis; conditions: female, human
[25] = Drug level in HIV-infected pregnant woman maternal blood plasma at 300 mg, po QD by LC/MS/MS analysis; conditions: human, in vivo
[26] = Drug level in HIV-infected pregnant woman amniotic fluid at 300 mg, po QD by LC/MS/MS analysis; conditions: human, in vivo
[27] = Drug level in HIV-infected pregnant woman amniotic fluid at 300 mg, po BID by LC/MS/MS analysis; conditions: human, in vivo
[28] = Drug level in HIV-infected pregnant woman maternal blood plasma at 300 mg, po BID by LC/MS/MS analysis; conditions: human, in vivo
[29] = Drug level in HIV-infected pregnant woman cord blood plasma at 300 mg, po BID by LC/MS/MS analysis; conditions: human, in vivo

Drug uptake [9]: 80 ng/mL
Drug uptake [10]: 60 ng/mL
Drug uptake [11]: 3451 ng/mL
SMILES: Cc1cccc(C)c1OCC(=O)N[C@@H](Cc1ccccc1)[C@@H](O)C[C@H](Cc1ccccc1)NC(=O)[C@H](C(C)C)N1CCCNC1=O [LOPINAVIR]

Drug uptake [17]: 12 ng/mL
Kp [18]: 0.55
Kp [19]: 0.02
Drug uptake [20]: 256 ng/mL
Drug uptake [21]: 20 ng/mL
SMILES: CC(C)c1nc(CN(C)C(=O)N[C@H](C(=O)N[C@@H](Cc2ccccc2)C[C@H](O)[C@H](Cc2ccccc2)NC(=O)OCc2cncs2)C(C)C)cs1 [RITONAVIR]

Drug uptake [22]: 30 ng/mL
Kp [23]: 6
Kp [24]: 158
Drug uptake [25]: 5 ng/mL
Drug uptake [26]: 791 ng/mL
SMILES: C[C@H](Cn1cnc2c(N)ncnc21)OCP(=O)(O)O [TENOFOVIR ANHYDROUS]

Drug uptake [27]: 2249 ng/mL
Drug uptake [28]: 557 ng/mL
Drug uptake [29]: 605 ng/mL
SMILES: Cc1cn([C@H]2C[C@H](N=[N+]=[N-])[C@@H](CO)O2)c(=O)[nH]c1=O [ZIDOVUDINE]

Continued, compound first:

SMILES: Cc1c(O)cccc1C(=O)N[C@@H](CSc1ccccc1)[C@H](O)CN1C[C@H]2CCCC[C@H]2C[C@H]1C(=O)NC(C)(C)C
Kp [1]: 1
Drug uptake [2]: 12 ng/mL
Drug uptake [3]: 65 ng/mL
Kp [4]: 0.49
Drug uptake [5]: 25 ng/mL

SMILES: Nc1ccn([C@@H]2CS[C@H](CO)O2)c(=O)n1 [LAMIVUDINE]
Drug uptake [6]: 931 ng/mL
Drug uptake [7]: 271 ng/mL
Drug uptake [8]: 216 ng/mL

SMILES: Cc1ccnc2c1NC(=O)c1cccnc1N2C1CC1 [NEVIRAPINE]
Kp [12]: 0.59
Kp [13]: 0.53
Drug uptake [14]: 1385 ng/mL
Drug uptake [15]: 1538 ng/mL
Drug uptake [16]: 2595 ng/mL
